{"source": "paper PMC5789847", "about": "“Bismuth antimicrobial drugs serve as broad-spectrum metallo-β-lactamase inhibitors” (Nature Communications, 2018)", "key": {"NDM-1 [1]": {"biological_target": "T1, NDM-1 (Klebsiella pneumoniae, UniProt C7C422)", "assay": "Zinc supplementation assay", "assay_type": "biochemical", "conditions": "supplementation of 2 molar equivalents of Zn(II); Bi-NDM-1 prepared with CBS", "method": "To investigate whether bismuth inhibits the enzyme reversibly, enzyme activities of Bi-NDM-1 and apo-NDM-1 were compared upon the supplementation of Zn(II). Bi-bound NDM-1 (50 nM) was prepared by pre-incubation of apo-bound NDM-1 with CBS for 2 h at 25 °C, followed by removal of unbound Bi(III) and the bound Bi was verified by ICP-MS. The above protein solutions were mixed with ZnSO4 at concentration up to 2 molar equivalents to NDM-1 and 100 µM MER. The change in absorbance at 300 nm was monitored on a Varian Cary 50 UV-visible spectrophotometer at 25 °C for calculation of reaction rates. Reaction rate of apo-NDM-1 with addition of 2 molar equivalents of ZnSO4 was normalized to 1. The metal content of Bi-bound NDM-1 treated with Zn(II) was measured and analyzed by ICP-MS as described in the previous section."}, "NDM-1 [2]": {"biological_target": "T1, NDM-1", "assay_type": "biochemical", "conditions": "Bi(III) 1.5 µM (as Bi(NIT)3); 0.900 at 0 µM"}, "NDM-1-C208A": {"biological_target": "NDM-1-C208A (Klebsiella pneumoniae, UniProt C7C422, C208A)", "sequence (C7C422 29-270 C208A)": "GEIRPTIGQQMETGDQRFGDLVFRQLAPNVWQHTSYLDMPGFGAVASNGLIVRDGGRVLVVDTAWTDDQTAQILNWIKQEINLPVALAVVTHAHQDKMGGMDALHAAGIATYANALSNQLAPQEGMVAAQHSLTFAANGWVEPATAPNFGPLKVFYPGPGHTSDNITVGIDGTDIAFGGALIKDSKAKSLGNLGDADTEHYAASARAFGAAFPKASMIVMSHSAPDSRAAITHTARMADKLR", "assay": "Bi(III) binding capacity by ICP-MS", "method": "To monitor the displacement of Zn(II) by Bi(III), ICP-MS was employed to accurately quantify ^209Bi and ^66Zn contents in various purified NDM-1 samples. Purified Zn-bound-NDM-1 (20 μM) dissolved in trace-metal-free ICP-MS buffer containing 50 mM HEPES, pH 7.0, was incubated with various concentrations of CBS at 25 °C for 5 h with mild shaking. The samples were subsequently dialyzed in ICP-MS buffer to remove unbound-metal ions and were then acidified and subsequently analyzed using an ICP-MS spectrometer (Agilent 7500a, Agilent Technologies, CA, USA) with ^115In as an internal standard for ^209Bi, ^66Zn, and ^34S contents, which are used to quantify protein concentration."}, "NDM-HK [3]": {"system": "NDM-HK", "assay": "Resistance study: MPC and mutation frequency", "assay_type": "cell-based, E. coli", "conditions": "≥64 µg mL^−1 Bi(NAC)3"}, "VIM-2": {"biological_target": "VIM-2 (Escherichia coli, UniProt Q5U7L7)", "assay_type": "biochemical", "conditions": "VIM-2 50 nM, 1 h preincubation, MER substrate", "method": "(§1) Freshly prepared 50 nM of Zn2-NDM-1, Zn2-VIM-2, or Zn2-IMP-4 in 50 mM HEPES/Na pH 7.0, 100 mM NaCl were first incubated with various concentrations of CBS for 1 h at 25 °C, then mixed with equal volume of 0.2 mM MER. The assay was performed in a 1 cm quartz cuvette using the kinetic mode on a Varian Cary50 UV-visible spectrophotometer at 25 °C. The decrease in absorbance at 300 nm due to ring-opening of MER was monitored every second for a duration of 10 min until the reaction was completed. The initial rates were extracted and calculated from each reaction curves for fitting IC50 curves."}, "NDM-1 [4]": {"biological_target": "T1, NDM-1", "assay_type": "biochemical", "conditions": "NDM-1 50 nM, 1 h preincubation, MER substrate", "method": "as §1"}, "NDM-HK [5]": {"system": "NDM-HK", "assay": "Time kill assay", "assay_type": "cell-based, E. coli", "conditions": "MER 24 µg mL^−1 + Bi(NAC)3 32 µg mL^−1", "method": "Time kill assay was used to further explore the synergy between MER and Bi(III) compounds. In a typical assay, NDM-HK was cultured overnight and diluted 1:250 into LB broth at 37 °C for 3 h to reach log phase. The initial bacterial density was adjusted to ~10^7 CFU mL^−1 and then exposed to MER, Bi(III) compounds either alone or in combination. LB broth with no drugs served as a control. Aliquots of bacterial suspension were withdrawn at different time intervals (0, 1, 2, 4, 6, 8, and 24 h) for inspection of bacterial viability by agar plating. The concentrations of the drugs used in the test are 24 µg mL^−1 for MER, 64 µg mL^−1 for CBS, and 32 µg mL^−1 for Bi(NAC)3. Data from three independent experiments were averaged and plotted as log10 CFU mL^−1 vs. time (h) for each time point over 24 h. All assays were triplicated and performed three times on different days."}, "NDM-1 [6]": {"biological_target": "T1, NDM-1", "assay_type": "cell-based", "parameters": "endogenous in cells; host or cells: E. coli clinical isolate NDM-HK", "conditions": "NDM-HK cultured with 100 µM compound; control 50.1 °C", "method": "The cellular thermal shift assay was performed according to a standard method. Clinical isolate of NDM-1-positive E. coli (NDM-HK) was cultured overnight in the absence or presence of 100 µM Bi(III) compounds, i.e., CBS, Bi(NAC)3, Bi(NIT)3. The bacterial pellets were harvested and washed with PBS for 4 times. The cell suspensions were aliquoted into PCR tubes and heat treatment was performed at the designated temperature ranging from 40 °C to 70 °C for 3 min in a 96-well thermal cycler. The tubes were cooled immediately at room temperature for another 3 min after heating and the heating procedures were repeated for three cycles. For the cell lysis, the samples were frozen–thawed for two cycles in liquid nitrogen and thermal cycler set at 25 °C. The samples were vortexed gently after each cycle and were centrifuged at 20,000 × g to obtain the supernatant when the second cycle was finished. All the samples were subjected to western blot analysis for detection and quantification of NDM-1 content as described above."}, "[7]": {"system": "NDM-C. freundii (NDM-1^+)", "assay": "Microdilution MIC/MBC and checkerboard assay", "assay_type": "cell-based, Citrobacter freundii", "method": "(§2) MIC values were determined by standard broth micro-dilution method (Clinical and Laboratory Standards Institute (CLSI) M100-S20, 2010)[64]. Briefly, bacterial cells were cultured in LB broth overnight at 37 °C at 250 rpm and the OD was measured at 600 nm (OD600). The bacterial density was adjusted to about 1 × 10^6 CFU mL^−1 and checked by CFU counting on agar plates afterwards. Tested antibiotics or Bi(III) compounds were added triplicately into individual wells of flat-bottomed 96-well plates and performed 2-fold serial dilution, followed by addition of prepared bacterial inocula. The plate was then incubated at 37 °C for overnight. […] The MIC was determined as the lowest concentration of a drug that could inhibit the growth of microorganism by both visual reading and OD reading at 600 nm using a microtiter plate reader.\n(§3) Resulting growth (or lack of growth) was examined after overnight culturing and the lowest concentration that inhibits 99.9% of the original culture was taken as MBC.\n(§4) Other procedures were kept strictly the same. […] Synergism was defined when FICI ≤ 0.5, indifference was defined when FICI > 0.5 and < 4, and antagonism was defined when FICI≥4[65]. […] All of the determinations were performed at least in triplicate on different days."}, "IMP-BL21 (IMP-4^+)": {"system": "IMP-BL21 (IMP-4^+)", "assay": "microbe, parasite or virus in culture", "assay_type": "cell-based, E. coli", "method": "as §2, §3, §4"}, "NDM-HK (NDM-1^+)": {"system": "NDM-HK (NDM-1^+)", "assay": "microbe, parasite or virus in culture", "assay_type": "cell-based, E. coli", "method": "as §2, §3, §4"}, "VIM-BL21 (VIM-2^+)": {"system": "VIM-BL21 (VIM-2^+)", "assay": "microbe, parasite or virus in culture", "assay_type": "cell-based, E. coli", "method": "as §2, §3, §4"}, "[8]": {"system": "MBL-positive bacterial strains", "conditions": "with MER, different MBL-positive strains", "method": "as §2, §3, §4"}, "IMP-4": {"biological_target": "IMP-4", "assay": "IC50 enzyme inhibition assay", "assay_type": "biochemical", "conditions": "IMP-4 50 nM, 1 h preincubation, MER substrate", "method": "as §1"}, "[9]": {"system": "NDM-K. pneumonia (NDM-1^+)", "assay": "Microdilution MIC/MBC and checkerboard assay", "assay_type": "cell-based, Klebsiella pneumonia", "method": "as §2, §3, §4"}}, "note": "Where “and” joins values, the source holds several entries; their conditions need not be identical. Identical values can stand only once.", "data": [{"smiles": "[Bi+3]", "note": "[Bi(III)]", "values": [{"measurement": "activity restored for Bi-bound NDM-1", "setting": "NDM-1 [1]", "value": "about 20%"}, {"measurement": "apparent Vmax", "setting": "NDM-1 [2]", "value": 0.365, "unit": "µM/s"}, {"measurement": "Bi(III) bound to the mutant", "setting": "NDM-1-C208A", "value": "ca. 0.25 molar equivalents"}]}, {"smiles": "CC(=O)N[C@@H](C[S][Bi]([S]C[C@H](NC(C)=O)C(=O)O)[S]C[C@H](NC(C)=O)C(=O)O)C(=O)O", "note": "[Bi(NAC)3]", "values": [{"measurement": "MER MPC with Bi(NAC)3", "setting": "NDM-HK [3]", "value": 2, "unit": "fold MIC"}, {"measurement": "IC50", "setting": "VIM-2", "value": "2.65 ± 0.57", "unit": "µM"}, {"measurement": "IC50", "setting": "NDM-1 [4]", "value": "1.65 ± 0.6", "unit": "µM"}, {"measurement": "time to eradicate the bacterium completely", "setting": "NDM-HK [5]", "value": "≤ 6", "unit": "h"}, {"measurement": "NDM-1 melting temperature, treated group", "setting": "NDM-1 [6]", "value": 47.7, "unit": "°C"}, {"measurement": "MBC of MER in combination with compound at 32 µg mL^-1", "setting": "[7]; NDM-C. freundii (NDM-CF)", "value": "0.5 µg mL^-1 and 0.5/0.5 µg mL^-1"}, {"measurement": "MIC of MER in combination with compound at 32 µg mL^-1", "setting": "[7]; NDM-C. freundii (NDM-CF)", "value": "0.5 µg mL^-1 and 0.5/0.5 µg mL^-1"}, {"measurement": "MBC of Bi(III) compound alone", "setting": "[7]; NDM-CF", "value": "> 256", "unit": "mg/L"}, {"measurement": "MIC of Bi(III) compound alone", "setting": "[7]; NDM-CF", "value": 256, "unit": "mg/L"}, {"measurement": "FICI", "setting": "[7]; NDM-CF, MER + compound, 256 µg mL^-1 set as MIC of Bi(III)", "value": 0.188}, {"measurement": "decrease in the MIC of MER", "setting": "IMP-BL21 (IMP-4^+); IMP-4-positive E. coli", "value": 16, "unit": "fold"}, {"measurement": "MBC of MER in combination with compound at 32 µg mL^-1", "setting": "IMP-BL21 (IMP-4^+); IMP-BL21", "value": "2 µg mL^-1 and 2/2 µg mL^-1"}, {"measurement": "MIC of MER in combination with compound at 32 µg mL^-1", "setting": "IMP-BL21 (IMP-4^+); IMP-BL21", "value": "2 µg mL^-1 and 2/2 µg mL^-1"}, {"measurement": "FICI", "setting": "IMP-BL21 (IMP-4^+); IMP-BL21, MER + compound, 256 µg mL^-1 set as MIC of Bi(III)", "value": 0.125}, {"measurement": "decrease in the MIC of MER", "setting": "NDM-HK (NDM-1^+); NDM-1-positive E. coli", "value": 32, "unit": "fold"}, {"measurement": "MBC of Bi(III) compound/inhibitor alone", "setting": "NDM-HK (NDM-1^+); NDM-HK", "value": "> 256", "unit": "mg/L"}, {"measurement": "MBC of MER in combination with compound at 32 µg mL^-1", "setting": "NDM-HK (NDM-1^+); NDM-HK", "value": 0.5, "unit": "mg/L"}, {"measurement": "MIC of Bi(III) compound/inhibitor alone", "setting": "NDM-HK (NDM-1^+); NDM-HK", "value": 128, "unit": "mg/L"}, {"measurement": "MIC of MER in combination with compound at 32 µg mL^-1", "setting": "NDM-HK (NDM-1^+); NDM-HK", "value": 0.5, "unit": "mg/L"}, {"measurement": "decrease in the MIC of MER", "setting": "VIM-BL21 (VIM-2^+); VIM-2-positive E. coli", "value": 64, "unit": "fold"}, {"measurement": "MBC of MER in combination with compound at 32 µg mL^-1", "setting": "VIM-BL21 (VIM-2^+); VIM-BL21", "value": 1, "unit": "mg/L"}, {"measurement": "MIC of MER in combination with compound at 32 µg mL^-1", "setting": "VIM-BL21 (VIM-2^+); VIM-BL21", "value": 0.5, "unit": "mg/L"}, {"measurement": "FICI", "setting": "VIM-BL21 (VIM-2^+); VIM-BL21, MER + compound, 256 µg mL^-1 set as MIC of Bi(III)", "value": 0.063}, {"measurement": "FICI values", "setting": "[8]", "value": "0.063 to 0.188"}, {"measurement": "IC50", "setting": "IMP-4", "value": "2.8 ± 0.79", "unit": "µM"}, {"measurement": "MBC of MER in combination with compound at 32 µg mL^-1", "setting": "[9]; NDM-K. pneumonia (NDM-KP)", "value": 2, "unit": "mg/L"}, {"measurement": "MIC of MER in combination with compound at 32 µg mL^-1", "setting": "[9]; NDM-K. pneumonia (NDM-KP)", "value": 1, "unit": "mg/L"}, {"measurement": "MBC of Bi(III) compound alone", "setting": "[9]; NDM-KP", "value": "> 256", "unit": "mg/L"}, {"measurement": "MIC of Bi(III) compound alone", "setting": "[9]; NDM-KP", "value": 256, "unit": "mg/L"}, {"measurement": "FICI", "setting": "[9]; NDM-KP, MER + compound, 256 µg mL^-1 set as MIC of Bi(III)", "value": 0.188}]}]}
